# Results published in patent US9303076B2, “Cell-penetrating peptides and uses thereof” (Hoffmann-La Roche Inc., priority 2010, dated 2016).
# Tests used:
# [1] = system: MCF-7 human breast cancer cells; assay: cell viability/apoptosis after 24 h exposure to pro-apoptotic peptides and CPP fusions; format: cell-based; details: MCF-7 cells, various concentrations
# Protocol: (§1) MCF-7 human breast cancer cells were incubated for 24 h in the presence of various concentrations of NRTN (squares), Nur (circles), and NurNRTN (triangles) peptides. The respective amino acid sequences are given in the bottom panel. The experimental approach for assessing cell viability (and thus induction of apoptosis) was the same as in FIG. 3.
# as §1, with “4E-BP1 (circles), TAT4E-BP1” for “NRTN”, “(squares),” for “(squares), Nur (circles),”, “NRTN4E-BP1” for “NurNRTN”, “peptides (top panel). […]” for “peptides.”
# Luminescence was analyzed in an InfiniteF200 luminescence reader.
# Then, the cells were treated with a luminogenic peptide substrate in order to measure dead-cell protease activity, which is released from cells that have lost membrane integrity. […] The luminescence of this assay therefore represents dead cells. The 96 well plates were then analyzed in an InfiniteF200 luminescence reader.
# Despite its proven ability to convert BCL-2 into a pro-apoptotic molecule, addition of the latter peptide (i.e. “Nor/Nur”; SEQ ID NO: 72) to cancer cells, even in high concentrations, is not sufficient to induce apoptosis, as the cellular target protein is located in the cytoplasm, but the peptide per se cannot effectively penetrate through the cell membrane to reach the target. In brief, MCF-7 breast cancer cells were incubated in the presence of this peptide for 24 h.
# (§2) Subsequently, it was evaluated whether the NurNRTN fusion peptide is capable of penetrating cellular membranes and thereby induces pro-apoptotic activity within cells. MCF-7 human breast cancer cells were used as a model. The experimental approach was as described above (cf. Example 1). […] This effect was dose dependent: cytotoxicity increased with increasing concentrations of peptide.
# as §2, with “NRTN4E-BP1” for “NurNRTN”
# [2] = biological target: T1, recombinant BCL2 (Homo sapiens, UniProt P10415); assay: BCL2 binding to bead-immobilized peptides; details: iodoacetyl beads, elution buffer pH 2.8, protein stain
# T1 construct: purchased Calbiochem/Merck, Darmstadt, Germany
# Protocol: In order to determine whether the BCL2 binding properties of the Nur77-derived peptide are maintained in the NurNRTN fusion peptide, the respective NurNRTN and NRTN peptides were coupled to iodoacetyl beads (Pierce Biotechnology, Inc., Rockford, Ill., USA). The beads were incubated with recombinant BCL2 (Calbiochem/Merck, Darmstadt, Germany) and washed with PBS and 0.5 M NaCl, 0.025 NaN3, 0.05% Tween20 to remove unbound protein. Specific binding of BCL2 to the immobilized NurNTRN fusion peptide was determined by eluting bound […] from the beads with elution buffer (pH 2.8), transfer of the eluted fraction to nitrocellulose (Invitrogen Corporation, Carlsbad, Calif., USA), and protein detection by means of the MemCode Reversible Protein Stain Kit (Pierce Biotechnology, Inc., Rockford, Ill., USA).
# T1 sequence (P10415 whole entry): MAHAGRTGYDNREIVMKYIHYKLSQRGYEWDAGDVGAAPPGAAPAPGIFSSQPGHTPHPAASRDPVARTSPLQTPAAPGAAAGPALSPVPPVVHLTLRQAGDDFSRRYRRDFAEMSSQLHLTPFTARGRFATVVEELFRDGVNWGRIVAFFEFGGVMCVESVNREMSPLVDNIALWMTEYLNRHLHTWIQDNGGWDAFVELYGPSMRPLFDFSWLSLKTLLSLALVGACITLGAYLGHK
sequence,measurement,setting,value
FSRSLHSLLYDLGLRRLRQRRRLRRERVRA (NurNRTN peptide sequence),cell viability / induction of apoptosis,[1],remarked cytotoxicity
same,BCL2 in eluates from peptide-coated beads,[2],BCL2 can be detected in eluates
